Experimental data taken from US20230058623A1, “NOVEL HETEROARYL-TRIAZOLE COMPOUNDS AS PESTICIDES” (Bayer Aktiengesellschaft, priority 2019, published 2023).

How the values were obtained:
[1] = tested on: two spotted spidermite (Tetranychus urticae); assay: Tetranychus urticae spray test OP-resistant; format: in vivo; conditions: foliar, 144 h, application rate 100 g/ha, after 6 days, French bean leaf disks
Experimental: Tetranychus urticae—Spray Test OP-Resistant
To produce a suitable preparation of active compound, 1 part by weight of active compound is mixed with the stated amount of solvents and is diluted with water, containing an emulsifier concentration of 1000 ppm, to the desired concentration. Further test concentrations are prepared by dilution with emulsifier containing water.
French bean (Phaseolus vulgaris) leaf disks infected with all instars of the two spotted spidermite (Tetranychus urticae) are sprayed with a preparation of the active ingredient of the desired concentration.
After 6 days mortality in % is determined. 100% means all spider mites have been killed and 0% means none of the spider mites have been killed.

[2] = tested on: adult Blattella germanica strain PAULINIA; assay: whole plant or invertebrate; format: in vivo; conditions: read-out: efficacy (mortality)
Experimental: Blattella germanica Test (BLTTGE Surface Treatment & Contact Assay)
Solvent: Aceton+2000 ppm rapeseed oil methyl ester (RME) In order to produce a sufficient, active ingredient containing solution it is necessary to solve the test compound in the solvent-mix (acetone at 2 mg/ml/RME 2000 ppm). This solution is pipetted onto a glazed tile and after evaporation of the acetone, adult animals of the species Blattella germanica strain PAULINIA are placed onto the dried surface. The exposure time is 30 minutes.
Mortality in percent (%) is determined 24 hours after contact of the insects to the treated surface. 100% mortality means that all tested insects are dead, whereas 0% means that no insect died.

C[C@H](NC(=O)c1cc(C(F)(F)F)cc(C(F)(F)F)c1)c1ncnn1-c1ccc(C(=O)N2CCOCC2)cn1 [Example I-2]
mortality at 100 g/ha [1]: 90%

CC1CN(C(=O)c2ccc(-n3ncnc3[C@H](C)NC(=O)c3cc(C(F)(F)F)cc(C(F)(F)F)c3)nc2)CC(C)O1 (some centres unmarked) [Example I-5]
mortality at 100 g/ha [1]: 90%

Cc1nc([C@H](C)NC(=O)c2cc(C(F)(F)F)cc(C(F)(F)F)c2)n(-c2ccc(C(=O)N3CCOCC3)cn2)n1 [Example I-9, N-[(1S)-1-{3-methyl-1-[5-(morpholin-4-ylcarbonyl)pyridin-2-yl]-1H-1,2,4-triazol-5-yl}ethyl]-3,5-bis(trifluoromethyl)benzamide]
mortality at 100 g/ha [1]: 100% | mortality at 20 mg/m2 [2]: 80 to 100%

C[C@H](NC(=O)c1cc(C(F)(F)F)cc(C(F)(F)F)c1)c1ncnn1-c1ccc(C(=O)N2CCCC2)cn1 [Example I-11]
mortality at 100 g/ha [1]: 100%
